Assay results from ChEMBL document CHEMBL1201862, “PubChem BioAssay data set” (2004).
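These data come from cells grown in 96-well plates and exposed to compound for 48 hours at five concentrations. GI50 marks 50% less growth.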 Activity calls are given as the source filed them. Cut-off read from the data, not from the text of the source: active = GI50 up to about 1.1 µM and inactive = higher.

Tests used:
Experiment in all cases: DTP human tumour cell line panel, 48 h
NCI-H522 = test system: NCI-H522
OVCAR-8 = test system: OVCAR-8
ACHN = test system: ACHN
M14 = test system: M14
OVCAR-5 = test system: OVCAR-5
NCI-H460 = test system: NCI-H460
DU-145 = test system: DU-145
SF-268 = test system: SF-268
MOLT-4 = test system: MOLT-4
OVCAR-4 = test system: OVCAR-4
HCC 2998 = test system: HCC 2998
RPMI-8226 = test system: RPMI-8226
MCF7 = test system: MCF7
HCT-15 = test system: HCT-15
U-251 = test system: U-251
SK-OV-3 = test system: SK-OV-3
HOP-62 = test system: HOP-62
K562 = test system: K562
LOX IMVI = test system: LOX IMVI
A498 = test system: A498

| SMILES | GI50 (NCI-H522) | GI50 (OVCAR-8) | GI50 (ACHN) | GI50 (M14) | GI50 (OVCAR-5) | GI50 (NCI-H460) | GI50 (DU-145) | GI50 (SF-268) | GI50 (MOLT-4) | GI50 (OVCAR-4) | GI50 (HCC 2998) | GI50 (RPMI-8226) | GI50 (MCF7) | GI50 (HCT-15) [µM] | GI50 (U-251) | GI50 (SK-OV-3) | GI50 (HOP-62) | GI50 (K562) | GI50 (LOX IMVI) | GI50 (A498) |
| --- | --- | --- | --- | --- | --- | --- | --- | --- | --- | --- | --- | --- | --- | --- | --- | --- | --- | --- | --- | --- |
| O=C(NNC(=S)Nc1ccc(Cl)cc1)c1cc(-c2ccccc2)nc2ccccc12 | 5.64 µM (inactive) | 8.11 µM (inactive) | 10 µM (inactive) | 4.97 µM (inactive) | 10.3 µM (inactive) | 6.22 µM (inactive) | 4.23 µM (inactive) | 11.7 µM (inactive) | 4.24 µM (inactive) | 10.5 µM (inactive) | 3.53 µM (inactive) | 4.08 µM (inactive) | 4.01 µM (inactive) | 3.43 | 3.51 µM (inactive) | 7.82 µM (inactive) | 6.12 µM (inactive) | 4.28 µM (inactive) |  |  |
| CN1C(=O)C(=CNc2ccccc2Cl)C(=O)N(C)C1=O | > 100 µM (inactive) | > 100 µM (inactive) | 24.5 µM (inactive) | 21.9 µM (inactive) | 24.8 µM (inactive) | 15.5 µM (inactive) |  | > 100 µM (inactive) | 22.6 µM (inactive) | 18.3 µM (inactive) | 18.7 µM (inactive) | 16.9 µM (inactive) | 24 µM (inactive) | 17.9 | > 100 µM (inactive) | 40.8 µM (inactive) | 19.8 µM (inactive) | 22.2 µM (inactive) | 15.3 µM (inactive) | > 100 µM (inactive) |
| Nc1ncnc2c1ncn2[C@@H]1C[C@H]1CO | > 100 µM (inactive) | > 100 µM (inactive) | > 100 µM (inactive) | > 100 µM (inactive) | > 100 µM (inactive) | > 100 µM (inactive) |  |  | > 100 µM (inactive) |  | > 100 µM (inactive) | > 100 µM (inactive) | > 100 µM (inactive) | > 100 | > 100 µM (inactive) |  | > 100 µM (inactive) | > 100 µM (inactive) | > 100 µM (inactive) | > 100 µM (inactive) |
| CC1CCC2(OC1)OC1CC3C4CCC5CC(O)CCC5(C)C4CC(=O)OC3(C)C1C2C (stereo unspecified) | > 100 µM (inactive) | > 100 µM (inactive) | > 100 µM (inactive) | > 100 µM (inactive) | > 100 µM (inactive) | > 100 µM (inactive) |  | > 100 µM (inactive) | > 100 µM (inactive) | > 100 µM (inactive) | > 100 µM (inactive) | > 100 µM (inactive) |  | > 100 | > 100 µM (inactive) | > 100 µM (inactive) | > 100 µM (inactive) | > 100 µM (inactive) | > 100 µM (inactive) | > 100 µM (inactive) |
